Measured values as given in patent US6361792B1, “Lipid dispersions and methods of use” (Alliance Pharmaceutical Corp., priority 1987, dated 2002).
“Also recorded” adds a separate entry of the source.

Key:
conscious swine = test: Delayed febrile response (core body temperature) to intravenous lipid dispersion in conscious swine, with or without prophylaxis; type: in vivo; settings: for effect on febrile reaction to fluorocarbon emulsion: prophylactic treatment, dose not given
Protocol: Swine were instrumented 48 hours prior to study for determination of core body temperature using a catheter-tipped thermistor, and for intravenous injection using an axillary vein catheter. On the day of study, core body temperature was determined at baseline and at regular intervals for 6 h after intravenous injection of Imagent®BP.

tumor-bearing animals = settings: cited from earlier work
anesthetized swine = test: Prophylaxis of the acute hemodynamic response to intravenous fluorocarbon emulsion with cyclooxygenase inhibitors
Text: All animals were fully anesthetized (ketamine-sodium pentobarbital), placed on positive pressure ventilation, and instrumented for determination of pulmonary artery pressure, cardiac output, ECG (electrocardiogram), right atrial pressure, and whole blood samples collections. Changes in skin color were also quantified using a relative color scale ranging from normal (light pink) to darker shades of pink and purple. Continuous electrocardiographs and oscillographic recordings of blood pressures were made. At least 30 minutes of baseline data were collected before intravascular administration of the substances. After control recordings, infusion of the pigs was carried out with 3 ml/kg body weight of either fluorocarbon emulsion as Imagent®BP (90% or 100% perfluorooctylbromide) or saline at a rate of 2 ml/min i.v. over 15 minutes.
A series of experiments was conducted to evaluate the effects of prophylactic treatment with cyclooxygenase inhibitors on the acute hemodynamic response to intravenous injection of 90% Imagent®BP in anesthetized swine. […] Animals receiving prophylaxis were administered indomethacin (0.5 mg/kg p.o.) prior to administration of the test article. Test swine were treated prophylactically with indomethacin, ibuprofen and aspirin.

thromboxane synthetase = target: T1, thromboxane synthetase (Rattus norvegicus, UniProt P49430); settings: in the rat; cited from earlier work
T1 sequence (P49430 1-533): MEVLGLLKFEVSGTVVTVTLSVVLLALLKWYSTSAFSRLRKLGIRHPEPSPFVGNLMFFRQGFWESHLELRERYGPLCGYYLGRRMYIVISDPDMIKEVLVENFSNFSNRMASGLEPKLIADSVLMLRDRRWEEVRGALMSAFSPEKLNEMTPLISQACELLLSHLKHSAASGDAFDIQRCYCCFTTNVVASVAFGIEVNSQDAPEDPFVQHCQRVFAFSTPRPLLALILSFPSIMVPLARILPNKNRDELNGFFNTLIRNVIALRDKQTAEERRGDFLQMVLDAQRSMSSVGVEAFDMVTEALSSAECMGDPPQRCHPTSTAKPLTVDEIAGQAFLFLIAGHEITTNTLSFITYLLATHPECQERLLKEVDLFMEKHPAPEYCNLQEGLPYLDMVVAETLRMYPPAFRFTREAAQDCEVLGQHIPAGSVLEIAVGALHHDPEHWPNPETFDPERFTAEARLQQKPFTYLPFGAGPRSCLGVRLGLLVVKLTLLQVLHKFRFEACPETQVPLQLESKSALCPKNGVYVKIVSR

Compound: CC(C)Cc1ccc(C(C)C(=O)O)cc1 (racemic) [ibuprofen, (±)-2-(p-isobutylphenyl)propionic acid]
- effect on febrile response to Imagent BP (conscious swine; oral 20 mg/kg 1 h before injection, 6 h time course): significantly suppressed
- symptoms in reaction to intravenous fluorocarbon emulsion (tumor-bearing animals): alleviated
- effect on acute hemodynamic response (mPAP) to Imagent BP (anesthetized swine; oral 20 mg/kg 1 h before Imagent BP 3 ml/kg i.v., 20 mg/kg): prevent the acute hemodynamic response
- effect on acute hemodynamic response (mPAP) to Imagent BP (anesthetized swine; oral 20 mg/kg 1 h before Imagent BP 3 ml/kg i.v., listed as Ibuprofen, 20 mg/kg): significantly attenuated the mPAP responses

Compound: Cn1ccnc1 [1-methyl-imidazole]
- inhibition of thromboxane synthetase (thromboxane synthetase): act effectively to inhibit thromboxane synthetase

Compound: O=C(O)CCCCCc1cccc2cncn12 [CGS 13080, imidazo(1,5-pyridine-5-hexanoic acid)]
- inhibition of thromboxane synthetase (thromboxane synthetase): act effectively to inhibit thromboxane synthetase

Compound: O=C(O)CCCCCCCn1ccnc1 [N(7-carboxyheptyl)imidazole]
- inhibition of thromboxane synthetase (thromboxane synthetase): act effectively to inhibit thromboxane synthetase

Compound: CC(=O)Nc1ccc(O)cc1 [acetaminophen]
- effect on febrile reaction to fluorocarbon emulsion (conscious swine): not prevented

Compound: CC(=O)Oc1ccccc1C(=O)O [aspirin, acetylsalicylic acid]
- effect on febrile reaction to fluorocarbon emulsion (conscious swine): not prevented
- effect on increased mPAP response to Fluosol (20% fluorocarbon emulsion) (anesthetized swine; aspirin pretreatment vs Fluosol alone, FIG. 2): decreased response
- blood cell counts (erythrocytes, leukocytes, platelets) after Imagent BP (anesthetized swine; aspirin prophylaxis, oral 5 mg/kg 1 h before): nearly identical to that seen with the saline control
- effect on acute hemodynamic response (mPAP) to Imagent BP (anesthetized swine; oral 5 mg/kg 1 h before Imagent BP (90%) 3 ml/kg i.v., 5 mg/kg): prevent the acute hemodynamic response; also recorded: appeared to completely block any increases in mPAP

Compound: O=C(O)c1ccc(OCCn2ccnc2)cc1 [dazoxiben, 4-(2-(1 H-imidazol-1 yl)ethoxy)benzoic acid]
- inhibition of thromboxane synthetase (thromboxane synthetase): act effectively to inhibit thromboxane synthetase

Compound: COc1ccc2c(c1)c(CC(=O)O)c(C)n2C(=O)c1ccc(Cl)cc1 [indomethacin, 1-(pchlorobenzoyl)-5-methoxy-2-methylindole-3-acetic acid]
- effect on acute hemodynamic response (mPAP) to Imagent BP (anesthetized swine; indomethacin i.v. bolus 10 mg/kg then 6 mg/kg/hr, Imagent BP 90% 3 ml/kg i.v.): prevent the acute hemodynamic response; also recorded: virtually prevented all of the hemodynamic reactions

Compound: COc1ccc2cc([C@H](C)C(=O)O)ccc2c1 [naproxen]
- effect on febrile response to Imagent BP (conscious swine; oral 5 mg/kg 1 h before injection (naproxen), 5 mg/kg): attenuated febrile response

Compound: methylprednisone
- effect on febrile response to Imagent BP (conscious swine; oral 5 mg/kg 12 h and 2 h before injection (methylprednisone), 5 mg/kg): attenuated febrile response
- effect on febrile response to Imagent BP (conscious swine; oral 5 mg/kg 12 h and 2 h before injection (methylprednisone), listed as Methylprednisone, 5 mg/kg): attenuates the response
